Experimental data taken from patent US20100331183A1, “AGENT FOR IMPROVING GOOD RICE SEEDLING GROWTH” (COSMO OIL CO., LTD, priority 2008, published 2010).

Columns and labels:
rice seedlings [1] = assay: Effect of improving the growth of rice seedlings - 1 (soil irrigation in seedling box, harvest 33 days from sowing); format: in vivo, rice (koshihikari variety)
Method: 450 g/pot of soil was placed in a seedling box (the area was 1/120,000×10 a). The soil used was a purchased volcanic ash soil (andosol). […] Fertilizer application was carried out using a liquid fertilizer, Hyponica, at a rate of 3 kg-N/10 a. […] After 29 days from sowing, additional fertilizer application was carried out using a liquid fertilizer, Hyponica, at a rate of 3 kg-N/10 a. After 33 days from sowing, the plant bodies were harvested, and the fresh weight (roots) and the tillering number were measured.

rice seedlings [2] = assay: Verification of effect: treated seedlings transplanted into paddy field pot, harvest after three weeks; format: in vivo; settings: 3 weeks after transplantation into paddy field pot; treated upon raising seedlings: 5-aminolevulinic acid hydrochloride 120 mg/10a and/or inabenfide 1200 g/10a; n = 3
Method: 450 g/pot of soil was placed in a seedling box (the area was 1/120,000×10 a). The soil used was a purchased volcanic ash soil (andosol). Rice seeds which had been subjected to brine grading using a brine having a specific gravity of 1.13, and had been germinated, were sowed at a rate of 15 seeds/pot, and the seeds were covered with soil at a depth of 1 to 2 cm (50 g/pot). Fertilizer application was carried out using a liquid fertilizer, Hyponica, at a rate of 5 kg-N/10 a. For each of the test zones (n=4), the soil was irrigated with combinations of inabenfide in an amount of treatment of 1,200 or 300 g/10 a, and 5-aminolevulinic acid hydrochloride in an amount of treatment of 600, 200 or 120 mg/10 a. After 22 days from sowing, the plant bodies were harvested, and the fresh weight (roots), the tillering number, the stem thickness and the chlorophyll content (SPAD value) were measured. The results for the fresh weight of roots and the tillering number under various conditions are presented in Table 6, and the results for the stem thickness and the chlorophyll content (SPAD value) under various conditions are presented in Table 7.
Seedlings were raised in the same manner as in Example 2. In regard to the treatment concentration upon raising seedlings, the treatment was carried out using 5-aminolevulinic acid hydrochloride at a concentration of 120 (mg/10 a) and inabenfide at a concentration of 1,200 (g/10 a). After the seedlings were raised, the roots of four seedlings were evenly cut to 2 cm, and the seedlings were transplanted into a pot simulating the state of paddy field. After three weeks from the transplantation into the pot simulating the state of paddy field, the plant bodies were harvested, and the dry weights of the aerial part and the root part, and the tillering number were measured. The various treatment conditions employed upon raising the seedlings, and the measurement values obtained after 3 weeks from the transplantation into paddy field pot are presented in Table 8.

rice seedlings [3] = assay: Effect of improving rice seedling growth - 2 (soil irrigation in seedling box, harvest 22 days from sowing); format: in vivo; settings: for SPAD value (chlorophyll content) / Stem thickness: 5-aminolevulinic acid hydrochloride 600 mg/10 a and/or inabenfide 300 g/10 a, n = 15 to 17
Method: 450 g/pot of soil was placed in a seedling box (the area was 1/120,000×10 a). The soil used was a purchased volcanic ash soil (andosol). […] Fertilizer application was carried out using a liquid fertilizer, Hyponica, at a rate of 5 kg-N/10 a. […] The results for the fresh weight of roots and the tillering number under various conditions are presented in Table 6, and the results for the stem thickness and the chlorophyll content (SPAD value) under various conditions are presented in Table 7.

[4] = 5-aminolevulinic acid hydrochloride 200 mg/10 a and/or paclobutrazole 90 g/10 a
[5] = 5-aminolevulinic acid hydrochloride 120 mg/10 a, inabenfide 0
[6] = 5-aminolevulinic acid hydrochloride 200 mg/10 a, inabenfide 0
[7] = 5-aminolevulinic acid hydrochloride 600 mg/10 a, inabenfide 0
[8] = 5-aminolevulinic acid hydrochloride 200 mg/10 a and/or inabenfide 1200 g/10 a
[9] = 5-aminolevulinic acid hydrochloride 200 mg/10 a and/or prohexadione calcium salt 15 g/10 a
[10] = 5-aminolevulinic acid hydrochloride 200 mg/10 a and/or trinexapac-ethyl 1.25 g/10 a
[11] = 5-aminolevulinic acid hydrochloride 200 mg/10 a and/or uniconazole P 30 g/10 a
[12] = 5-aminolevulinic acid hydrochloride 200 mg/10 a and/or uniconazole P 30 g/10 a, n=4 zones
[13] = inabenfide 300 g/10 a, 5-aminolevulinic acid hydrochloride 0
[14] = inabenfide 1200 g/10 a, 5-aminolevulinic acid hydrochloride 0

Structure (SMILES) | Average tillering number per plant body (rice seedlings [1]; [4]) | Fresh weight of roots (rice seedlings [1]; [4]) [g] | Average tillering number per plant body (rice seedlings [2]) | Degree of sturdiness (dry weight/height for shoots) (rice seedlings [2]) [g/cm] | Dry weight of roots (rice seedlings [2]) [g] | Dry weight of shoots (rice seedlings [2]) [g] | Fresh weight of shoots (rice seedlings [2]) [g] | SPAD value (chlorophyll content) (rice seedlings [3]) | Stem thickness (rice seedlings [3]) [cm] | Average tillering number per plant body (rice seedlings [1]; [8]) | Fresh weight of roots (rice seedlings [1]; [8]) [g] | Fresh weight of roots (rice seedlings [1]; [9]) [g] | Average tillering number per plant body (rice seedlings [1]; [10]) | Fresh weight of roots (rice seedlings [1]; [10]) [g] | Average tillering number per plant body (rice seedlings [1]; [11]) | Fresh weight of roots (rice seedlings [1]; [12]) [g] | other results
CC(C)(C)[C@@H](O)[C@@H](Cc1ccc(Cl)cc1)n1cncn1 (racemic) [Paclobutrazole, (2RS,3RS)-1-(4-chlorophenyl)-4,4-dimethyl-2-(1H-1,2,4-triazol-1-yl)pentan-3-ol] | 0.80 | 0.29 |  |  |  |  |  |  |  |  |  |  |  |  |  |  | 
Cl.NCC(=O)CCC(=O)O [5-aminolevulinic acid hydrochloride] | 0.00 | 0.29 | 6.7 | 0.052 | 1.0 | 3.2 | 14.1 | 28.70 | 0.429 | 0.00 | 0.29 | 0.29 | 0.00 | 0.29 | 0.00 | 0.29 | Average tillering number per plant body (rice seedlings [3]; [5]): 0.03; Fresh weight of roots (rice seedlings [3]; [5]): 0.35 g; Average tillering number per plant body (rice seedlings [3]; [6]): 0.01; Fresh weight of roots (rice seedlings [3]; [6]): 0.36 g; Average tillering number per plant body (rice seedlings [3]; [7]): 0.00; Fresh weight of roots (rice seedlings [3]; [7]): 0.35 g
O=C(Nc1ccc(Cl)cc1C(O)c1ccccc1)c1ccncc1 (stereo not drawn) [Inabenfide] |  |  | 8.0 | 0.060 | 1.1 | 3.6 | 15.8 | 29.23 | 0.415 | 0.19 | 0.34 |  |  |  |  |  | Average tillering number per plant body (rice seedlings [3]; [13]): 0.11; Fresh weight of roots (rice seedlings [3]; [13]): 0.35 g; Average tillering number per plant body (rice seedlings [3]; [14]): 0.41; Fresh weight of roots (rice seedlings [3]; [14]): 0.35 g
CCC(=O)C1=C([O-])CC(C(=O)[O-])CC1=O.[Ca+2] (stereo not drawn) [Prohexadione calcium salt, calcium 3-oxido-5-oxo-4-propionyl-3-cyclohexene carboxylate] |  |  |  |  |  |  |  |  |  |  |  | 0.32 |  |  |  |  | 
CCOC(=O)C1CC(=O)C(=C(O)C2CC2)C(=O)C1 (stereo not drawn) [Trinexapac-ethyl, ethyl=4-cyclopropyl-α-hydroxymethylene)-3,5-dioxocyclohexane carboxylate] |  |  |  |  |  |  |  |  |  |  |  |  | 0.00 | 0.23 |  |  | 
CC(C)(C)[C@H](O)/C(=C\c1ccc(Cl)cc1)n1cncn1 [Uniconazole P, (E)-(S)-1-(4-chlorophenyl)-4,4-dimethyl-2-(1H-1,2,4-triazol-1-yl)pent-1-en-3-ol] |  |  |  |  |  |  |  |  |  |  |  |  |  |  | 0.86 | 0.28 | 
